Results taken from patent US20230183292A1, “IMMUNOMODULATORS” (priority 2020, published 2023).
Starred links: 1 amine or outer side, 2 acyl side, 3 side chain; linkers in the order of their positions; H or OH if unused. Positions of bridges follow the written chain, without caps; N, C: chain ends. Non-standard residues stand in square brackets, D forms with d. Residues, ends and D or L forms follow the SMILES beside them. Groups on a side chain read outwards from the residue. *: point of attachment. Cholyl = C[C@H](CCC(=O)*)[C@H]1CC[C@H]2[C@@H]3[C@H](O)C[C@@H]4C[C@H](O)CC[C@]4(C)[C@H]3C[C@H](O)[C@]12C; Dehydrocholoyl = C[C@H](CCC(=O)*)[C@H]1CC[C@H]2[C@@H]3C(=O)C[C@@H]4CC(=O)CC[C@]4(C)[C@H]3CC(=O)[C@]12C; X35 = O=C(Cn1cc(C[C@H](N[*:1])C(=O)[*:2])c2ccccc21)NCC(F)(F)F; X27 = O=C(Cn1cc(C[C@H](N[*:1])C(=O)[*:2])c2ccccc21)Oc1ccccc1; X4 = O=C(Cn1cc(C[C@H](N[*:1])C(=O)[*:2])c2ccccc21)OCCOCCO; X32 = CCCNC(=O)Cn1cc(C[C@H](N[*:1])C(=O)[*:2])c2ccccc21; X1 = NCCNC(=O)Cn1cc(C[C@H](N[*:1])C(=O)[*:2])c2ccccc21; Pro(4R-Me) = C[C@H]1CN[C@H](C(=O)O)C1; Hyp = O=C(O)[C@@H]1C[C@@H](O)CN1; NMeNle = CCCC[C@H](NC)C(=O)O; NMeA = CN[C@@H](C)C(=O)O; Dab = NCC[C@H](N)C(=O)O; Dap = NC[C@H](N)C(=O)O

Molecular target: T1, PD-1/PD-L1 (Homo sapiens, UniProt Q9NZQ7)
T1 construct: TVMV protease site (C); made in house; host or cells: HEK293T cells
T1 sequence (Q9NZQ7 18-239): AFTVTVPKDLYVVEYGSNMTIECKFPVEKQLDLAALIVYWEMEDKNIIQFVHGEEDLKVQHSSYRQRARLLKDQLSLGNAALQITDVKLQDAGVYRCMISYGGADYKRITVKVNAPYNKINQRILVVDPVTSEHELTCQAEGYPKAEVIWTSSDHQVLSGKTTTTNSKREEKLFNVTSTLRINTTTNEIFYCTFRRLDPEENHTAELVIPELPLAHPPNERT
Experiment: PD-1/PD-L1 Homogenous Time-Resolved Fluorescence (HTRF) binding assay
Details: HTRF IC50, PD-L1-His 10 nM, PD-1-Ig 20 nM
Outline: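 Inhibitors pre-incubated 15 min with PD-L1-His (10 nM final) in dPBS, 0.1% BSA, 0.05% Tween-20, then 15 min with PD-1-Ig (20 nM final). Eu-cryptate anti-Ig (1 nM) and APC anti-His (20 nM) added, 30 min equilibration; HTRF 665/620 nm ratio. Human ECD proteins from HEK293T.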

Row | Compound | IC50
1 | CCCC[C@H]1C(=O)N(C)[C@@H](CCCC)C(=O)N[C@@H](CC(C)C)C(=O)N[C@H](C(=O)NCC(N)=O)CSCC(=O)N[C@@H](Cc2ccc(O)cc2)C(=O)N(C)[C@@H](C)C(=O)N[C@@H](CC(N)=O)C(=O)N2CCC[C@H]2C(=O)N[C@@H](CNC(=O)CC[C@@H](C)[C@H]2CC[C@H]3[C@@H]4C(=O)C[C@@H]5CC(=O)CC[C@]5(C)[C@H]4CC(=O)[C@]23C)C(=O)N[C@@H](CC(C)C)C(=O)N2C[C@H](O)C[C@H]2C(=O)N[C@@H](Cc2c[nH]c3ccccc23)C(=O)N[C@@H](CCNC(=O)CC[C@@H](C)[C@H]2CC[C@H]3[C@@H]4C(=O)C[C@@H]5CC(=O)CC[C@]5(C)[C@H]4CC(=O)[C@]23C)C(=O)N[C@@H](Cc2cn(CC(=O)Oc3ccccc3)c3ccccc23)C(=O)N1C [Example 2015] ({CH2CO}-Y[NMeA]NP[Dap](Dehydrocholoyl)L[Hyp]W[Dab](Dehydrocholoyl)[X27][NMeNle][NMeNle]LCG-NH2; thioether N-14) | 20 nM

Same assay, conditions: PD-L1-His 10 nM, PD-1-Ig 20 nM; read-out: HTRF IC50

Row | Compound | IC50
2 | CCCCCCOC(=O)Cn1cc(C[C@@H]2NC(=O)[C@H](CCNC(=O)CC[C@@H](C)[C@H]3CC[C@H]4[C@@H]5C(=O)C[C@@H]6CC(=O)CC[C@]6(C)[C@H]5CC(=O)[C@]34C)NC(=O)[C@H](Cc3c[nH]c4ccccc34)NC(=O)[C@@H]3C[C@@H](O)CN3C(=O)[C@H](CC(C)C)NC(=O)[C@H](CNC(=O)CC[C@@H](C)[C@H]3CC[C@H]4[C@@H]5C(=O)C[C@@H]6CC(=O)CC[C@]6(C)[C@H]5CC(=O)[C@]34C)NC[C@@H]3CCCN3C(=O)[C@H](CC(N)=O)NC(=O)[C@H](C)N(C)C(=O)[C@H](Cc3ccc(O)cc3)NC(=O)CSC[C@@H](C(=O)NCC(N)=O)NC(=O)[C@H](CC(C)C)NC(=O)[C@H](CCCC)N(C)C(=O)[C@H](CCCC)N(C)C2=O)c2ccccc21 [Example 2014] | 4600 nM
3 | CCCC[C@H]1C(=O)N(C)[C@@H](CCCC)C(=O)N[C@@H](CC(C)C)C(=O)N[C@H](C(=O)NCC(N)=O)CSCC(=O)N[C@@H](Cc2ccc(O)cc2)C(=O)N(C)[C@@H](C)C(=O)N[C@@H](CC(N)=O)C(=O)N2CCC[C@H]2C(=O)N[C@@H](CNC(=O)CC[C@@H](C)[C@H]2CC[C@H]3[C@@H]4C(=O)C[C@@H]5CC(=O)CC[C@]5(C)[C@H]4CC(=O)[C@]23C)C(=O)N[C@@H](CC(C)C)C(=O)N2C[C@H](O)C[C@H]2C(=O)N[C@@H](Cc2c[nH]c3ccccc23)C(=O)N[C@@H](CCNC(=O)CC[C@@H](C)[C@H]2CC[C@H]3[C@@H]4C(=O)C[C@@H]5CC(=O)CC[C@]5(C)[C@H]4CC(=O)[C@]23C)C(=O)N[C@@H](Cc2cn(CC(=O)OCCOCCO)c3ccccc23)C(=O)N1C [Example 2016] ({CH2CO}-Y[NMeA]NP[Dap](Dehydrocholoyl)L[Hyp]W[Dab](Dehydrocholoyl)[X4][NMeNle][NMeNle]LCG-NH2; thioether N-14) | 15 nM
4 | CCCC[C@H]1C(=O)N(C)[C@@H](CCCC)C(=O)N[C@@H](CC(C)C)C(=O)N[C@H](C(=O)NCC(N)=O)CSCC(=O)N[C@@H](Cc2ccc(O)cc2)C(=O)N(C)[C@@H](C)C(=O)N[C@@H](CC(N)=O)C(=O)N2CCC[C@H]2C(=O)N[C@@H](CNC(=O)CC[C@@H](C)[C@H]2CC[C@H]3[C@@H]4C(=O)C[C@@H]5CC(=O)CC[C@]5(C)[C@H]4CC(=O)[C@]23C)C(=O)N[C@@H](CC(C)C)C(=O)N2C[C@H](O)C[C@H]2C(=O)N[C@@H](Cc2c[nH]c3ccccc23)C(=O)N[C@@H](CCNC(=O)CC[C@@H](C)[C@H]2CC[C@H]3[C@@H]4C(=O)C[C@@H]5CC(=O)CC[C@]5(C)[C@H]4CC(=O)[C@]23C)C(=O)N[C@@H](Cc2cn(CC(=O)NCC(F)(F)F)c3ccccc23)C(=O)N1C [Example 2018] ({CH2CO}-Y[NMeA]NP[Dap](Dehydrocholoyl)L[Hyp]W[Dab](Dehydrocholoyl)[X35][NMeNle][NMeNle]LCG-NH2; thioether N-14) | 17 nM
5 | CCCC[C@H]1C(=O)N(C)[C@@H](CCCC)C(=O)N[C@@H](CC(C)C)C(=O)N[C@H](C(=O)NCC(N)=O)CSCC(=O)N[C@@H](Cc2ccc(O)cc2)C(=O)N(C)[C@@H](C)C(=O)N[C@@H](CC(N)=O)C(=O)N2CCC[C@H]2C(=O)N[C@@H](CNC(=O)CC[C@@H](C)[C@H]2CC[C@H]3[C@@H]4C(=O)C[C@@H]5CC(=O)CC[C@]5(C)[C@H]4CC(=O)[C@]23C)C(=O)N[C@@H](CC(C)C)C(=O)N2C[C@H](O)C[C@H]2C(=O)N[C@@H](Cc2c[nH]c3ccccc23)C(=O)N[C@@H](CCNC(=O)CC[C@@H](C)[C@H]2CC[C@H]3[C@@H]4C(=O)C[C@@H]5CC(=O)CC[C@]5(C)[C@H]4CC(=O)[C@]23C)C(=O)N[C@@H](Cc2cn(CC(=O)NCCN)c3ccccc23)C(=O)N1C [Example 2019] ({CH2CO}-Y[NMeA]NP[Dap](Dehydrocholoyl)L[Hyp]W[Dab](Dehydrocholoyl)[X1][NMeNle][NMeNle]LCG-NH2; thioether N-14) | 19 nM
6 | CCCC[C@H]1C(=O)N(C)[C@@H](CCCC)C(=O)N[C@@H](CC(C)C)C(=O)N[C@H](C(=O)NCC(N)=O)CSCC(=O)N[C@@H](Cc2ccc(O)cc2)C(=O)N(C)[C@@H](C)C(=O)N[C@@H](CC(N)=O)C(=O)N2CCC[C@H]2C(=O)N[C@@H](CNC(=O)CC[C@@H](C)[C@H]2CC[C@H]3[C@@H]4[C@H](O)C[C@@H]5C[C@H](O)CC[C@]5(C)[C@H]4C[C@H](O)[C@]23C)C(=O)N[C@@H](CC(C)C)C(=O)N2C[C@H](O)C[C@H]2C(=O)N[C@@H](Cc2c[nH]c3ccccc23)C(=O)N[C@@H](CCNC(=O)CC[C@@H](C)[C@H]2CC[C@H]3[C@@H]4[C@H](O)C[C@@H]5C[C@H](O)CC[C@]5(C)[C@H]4C[C@H](O)[C@]23C)C(=O)N[C@@H](Cc2cn(CC(=O)NCCN)c3ccccc23)C(=O)N1C [Example 2021] ({CH2CO}-Y[NMeA]NP[Dap](Cholyl)L[Hyp]W[Dab](Cholyl)[X1][NMeNle][NMeNle]LCG-NH2; thioether N-14) | 180 nM
7 | CCCC[C@H]1C(=O)N(C)[C@@H](CCCC)C(=O)N[C@@H](CC(C)C)C(=O)N[C@H](C(=O)NCC(N)=O)CSCC(=O)N[C@@H](Cc2ccc(O)cc2)C(=O)N(C)[C@@H](C)C(=O)N[C@@H](CC(N)=O)C(=O)N2CCC[C@H]2C(=O)N[C@@H](CNC(=O)CC[C@@H](C)[C@H]2CC[C@H]3[C@@H]4[C@H](O)C[C@@H]5C[C@H](O)CC[C@]5(C)[C@H]4C[C@H](O)[C@]23C)C(=O)N[C@@H](CC(C)C)C(=O)N2C[C@H](O)C[C@H]2C(=O)N[C@@H](Cc2c[nH]c3ccccc23)C(=O)N[C@@H](CCNC(=O)CC[C@@H](C)[C@H]2CC[C@H]3[C@@H]4[C@H](O)C[C@@H]5C[C@H](O)CC[C@]5(C)[C@H]4C[C@H](O)[C@]23C)C(=O)N[C@@H](Cc2cn(CC(=O)NCCC)c3ccccc23)C(=O)N1C [Example 2023] ({CH2CO}-Y[NMeA]NP[Dap](Cholyl)L[Hyp]W[Dab](Cholyl)[X32][NMeNle][NMeNle]LCG-NH2; thioether N-14) | 660 nM
8 | CCCC[C@H]1C(=O)N(C)[C@@H](CCCC)C(=O)N[C@@H](CC(C)C)C(=O)N[C@H](C(=O)NCC(N)=O)CSCC(=O)N[C@@H](Cc2ccc(O)cc2)C(=O)N(C)[C@@H](C)C(=O)N[C@@H](CC(N)=O)C(=O)N2CCC[C@H]2C(=O)N[C@@H](CNC(=O)CNC(=O)CC[C@@H](C)[C@H]2CC[C@H]3[C@@H]4[C@H](O)C[C@@H]5C[C@H](O)CC[C@]5(C)[C@H]4C[C@H](O)[C@]23C)C(=O)N[C@@H](CC(C)C)C(=O)N2C[C@H](C)C[C@H]2C(=O)N[C@@H](Cc2c[nH]c3ccccc23)C(=O)N[C@@H](CCNC(=O)CNC(=O)CC[C@@H](C)[C@H]2CC[C@H]3[C@@H]4[C@H](O)C[C@@H]5C[C@H](O)CC[C@]5(C)[C@H]4C[C@H](O)[C@]23C)C(=O)N[C@@H](Cc2cn(CC(=O)NCCN)c3ccccc23)C(=O)N1C [Example 2026] ({CH2CO}-Y[NMeA]NP[Dap]([Gly-Cholyl])L[Pro(4R-Me)]W[Dab]([Gly-Cholyl])[X1][NMeNle][NMeNle]LCG-NH2; thioether N-14) | 400 nM
9 | CCCC[C@H]1C(=O)N(C)[C@@H](CCCC)C(=O)N[C@@H](CC(C)C)C(=O)N[C@H](C(=O)NCC(N)=O)CSCC(=O)N[C@@H](Cc2ccc(O)cc2)C(=O)N(C)[C@@H](C)C(=O)N[C@@H](CC(N)=O)C(=O)N2CCC[C@H]2C(=O)N[C@@H](CNC(=O)CNC(=O)CC[C@@H](C)[C@H]2CC[C@H]3[C@@H]4[C@H](O)C[C@@H]5C[C@H](O)CC[C@]5(C)[C@H]4C[C@H](O)[C@]23C)C(=O)N[C@@H](CC(C)C)C(=O)N2C[C@H](C)C[C@H]2C(=O)N[C@@H](Cc2c[nH]c3ccccc23)C(=O)N[C@@H](CCNC(=O)CNC(=O)CC[C@@H](C)[C@H]2CC[C@H]3[C@@H]4[C@H](O)C[C@@H]5C[C@H](O)CC[C@]5(C)[C@H]4C[C@H](O)[C@]23C)C(=O)N[C@@H](Cc2cn(CC(=O)NCCC)c3ccccc23)C(=O)N1C [Example 2027] ({CH2CO}-Y[NMeA]NP[Dap]([Gly-Cholyl])L[Pro(4R-Me)]W[Dab]([Gly-Cholyl])[X32][NMeNle][NMeNle]LCG-NH2; thioether N-14) | 990 nM
